According to a melting point compilation (Tetko et al.; mined from patent text by program, amines drawn as free bases though some values may be those of a salt):

| Structure (SMILES) | melting point [°C] |
| --- | --- |
| C[Si](C)(C)c1ccc(O)c(C(=O)C=C(O)c2ccc(C(=O)O)cc2)c1 | 207 to 209 |
| CCOC(=O)c1nc(-c2c(Cl)cc(C(F)(F)F)cc2Cl)[nH]c1C#N | 180 to 181 |
| CC(=O)N1CCc2cc(C(=O)CCCCCl)ccc21 | 90 to 91 |
| c1cnc(-c2cccnc2)nc1 | 51 to 52 |
| OCCCn1c(C2CCCCC2)nc2ccc(Cl)cc21 | 120 |
| O=C(NN=CC(F)(F)C(F)(F)F)c1nc(Oc2cccc(C(F)(F)F)c2)ccc1Cl | 130 to 131 |
| NS(=O)(=O)c1cc2c(=O)[nH]ccc2s1 | 300 to 301 |
| N#Cc1cc(CBr)ccc1Cl | 55 to 58 |
| Cc1nn2c(-c3cc(Cl)ccc3Cl)ccnc2c1C#N | 234 to 236 |
| CC(=O)OC[C@@](O)(c1ccc(F)cc1F)[C@H](C)c1ccncn1 | 102 to 104 |
| O=C(O)c1cccc(C(=O)O)c1[N+](=O)[O-] | 100 to 101 |
| COc1ccnc(C(C)Sc2nc3cc4c(cc3[nH]2)OC(F)(F)O4)c1 (centres undefined) | 173 to 175 |
| Fc1ccc(F)c(C(Sc2ccc(Cl)cc2)c2ccncc2Cl)c1 (centres undefined) | 70 to 72 |
| C[C@@H]1CN(c2cccc(-c3cn[nH]c3N)c2)C[C@H](C)O1 | 158 to 160 |
| COC(=O)C=CC=CCSc1ccc(N(C)C)cc1 | 68 to 70 |
| Cc1cc(OCc2ccc(-c3ccc(C(F)(F)F)c(F)c3)nc2C)ccc1OC(C)(C)C(=O)O | 175 to 176 |
| C=Cc1ncn2c1CN(C)C(=O)c1c(Cl)cccc1-2 | 205 to 207 |
| Cc1c(C(=O)O)cccc1S(=O)(=O)CCO | 160 to 165 |
| CCOC(=O)c1cn(C2COC2)c2c(F)c(F)c(F)c(F)c2c1=O | 110 to 113 |
| C=C(COC)c1ccc(NC(=O)N(C)C)cc1 | 96 to 97 |
| Cc1c(-c2ccc(O)c(F)c2)sc(C=O)c1-c1ccc(O)c(Cl)c1 | 252 to 254 |
| O=C(O)c1cc(F)ccc1Sc1ccccc1 | 146 to 148 |
| CC(=O)OC1CCN(Cc2nc(-c3cc(C(C)(C)C)c(O)c(C(C)(C)C)c3)cs2)CC1 | 160 to 161 |

Next, values leading:

| melting point [°C] | Structure (SMILES) |
| --- | --- |
| 154 to 156 | COC(=O)c1cc(N)c(Oc2ccccc2)c(N2CCCC2)c1 |
| 92 to 93 | CCC(CC)(CC(=O)Nc1cccc(OCc2ccc3ccc(F)cc3n2)c1)C(=O)O |
| 207 to 208 | COc1cc(C(=O)NS(=O)(=O)c2ccccc2C)ccc1CN1CCOc2ccc(NC(=O)CC3CCCC3)cc21 |
| 133 to 134 | O=S(=O)(c1ccc(Cl)cc1)C1(c2nnn(Cc3ccccc3)n2)CCCCC1 |
| 99 to 100 | Cc1c(OCC(F)(F)F)ccnc1CS(=O)c1nc2cc(N3CCCCC3)c(F)cc2[nH]1 (centres undefined) |
| 202 to 203 | COc1ccnc(N2CCN(C(=O)c3cc4ccccc4[nH]3)CC2)n1 |
| 154 to 156 | COC(=O)C1=C(C(F)F)NC(C)=C(C(=O)OC2CCCC2)C1c1cccc([N+](=O)[O-])c1C (centres undefined) |
| 148 to 149 | COc1cccc(CC(=O)O)c1OCCCc1cn(-c2ccc(Cl)cn2)nc1C(C)C |
| 141 | CS(=O)(=O)Oc1cccc(N2CCN(CCCCCC(=O)N3Cc4ccccc4C3)CC2)c1 |
| 152 to 154 | CCCc1[nH]c2cc(C(=O)OC)ccc2c1C(=O)C1CC1 |
| 118 to 119 | CC(=O)NCc1ccc(CN2CCN(c3cnccn3)CC2)cc1 |
| 262 to 264 | Cn1cc(C2=C(c3c4n(c5ccccc35)CCC(CCN=[N+]=[N-])C4)C(=O)NC2=O)c2ccccc21 (centres undefined) |
| 160 | COC(=O)C1=C(CC(=O)N2CCN(C)CC2)NC(CS(=O)c2ccccc2OC)=C(C(=O)OC)C1c1c(Cl)cccc1Cl (centres undefined) |
| 115 to 116 | COC(=O)c1ccc(OCC(C)=O)c(C(=O)OC)c1 |
| 118 to 120 | O=C(C1=C(O)CCS1)c1nnn(Cc2ccccc2)c1Cl |
| 189 to 191 | S=C(NCc1cccc(Cl)c1)N1CCc2c([nH]c3ccccc23)C1c1ccc2c(c1)OCO2 (centres undefined) |
